According to patent US20260132132A1, “3A,4,5,6-TETRAHYDRO-1 H-PYRAZOLO[3,4-C]PYRIDIN-7(7AH)-ONE DERIVATIVES AS FACTOR XIIA INHIBITORS” (KALVISTA PHARMACEUTICALS LIMITED, priority 2022, published 2026):

Target: T1, Human Factor XIIa (hFXIIa) (Homo sapiens, UniProt P00748)
T1 construct: purchased Enzyme Research Laboratories
T1 sequence (P00748 373-615 limits assumed): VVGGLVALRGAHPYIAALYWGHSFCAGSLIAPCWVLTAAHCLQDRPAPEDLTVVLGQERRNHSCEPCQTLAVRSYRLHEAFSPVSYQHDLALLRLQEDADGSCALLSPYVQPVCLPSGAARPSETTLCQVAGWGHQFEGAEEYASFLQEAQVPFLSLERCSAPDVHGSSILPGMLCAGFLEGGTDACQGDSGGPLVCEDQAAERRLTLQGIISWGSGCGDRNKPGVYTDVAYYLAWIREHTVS
T1 sequence (P00748 20-372 partner limits assumed): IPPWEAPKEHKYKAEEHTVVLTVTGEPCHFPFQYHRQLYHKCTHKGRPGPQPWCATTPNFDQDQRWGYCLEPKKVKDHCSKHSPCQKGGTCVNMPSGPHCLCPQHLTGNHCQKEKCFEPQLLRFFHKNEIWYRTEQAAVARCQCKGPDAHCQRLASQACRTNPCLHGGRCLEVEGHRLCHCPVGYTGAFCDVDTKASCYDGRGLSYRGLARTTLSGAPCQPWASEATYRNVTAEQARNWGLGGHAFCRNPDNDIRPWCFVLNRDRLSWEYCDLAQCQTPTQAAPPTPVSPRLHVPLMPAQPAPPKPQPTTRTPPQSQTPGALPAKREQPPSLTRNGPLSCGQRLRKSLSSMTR
Assay: Determination of Human Factor XIIa (hFXIIa) inhibition, fluorogenic substrate IC50 assay
Format: biochemical
Conditions: fluorogenic substrate H-DPro-Phe-Arg-AFC at Km, 25° C., read-out: Human FXIIa IC50
Description: Determination of Human Factor XIIa (hFXIIa) inhibition
The Km for the cleavage of the substrate by hFXIIa was determined by standard transformation of the Michaelis-Menten equation, with subsequent inhibition assays performed at substrate Km concentration.

| IC50 [nM] | Structure (SMILES) |
| --- | --- |
| 1000 to 3000 | Cc1cc(CNC(=O)c2nn(-c3cccc(Cl)c3)c3c2CCN(c2ccc4c(c2)N(C)C(=O)CCC4)C3=O)nn1C [Example 1241, 1-(3-chlorophenyl)-N-((1,5-dimethyl-1H-pyrazol-3-yl)methyl)-6-(1-methyl-2-oxo-2,3,4,5-tetrahydro-1H-benzo[b]azepin-8-yl)-7-oxo-4,5,6,7-tetrahydro-1H-pyrazolo[3,4-c]pyridine-3-carboxamide] |
| 1000 to 3000 | CCOC(=O)c1nn(-c2cccc(Cl)c2)c2c1CCN(c1cccc(N3CCCC3=O)c1)C2=O [Example 1323, ethyl 1-(3-chlorophenyl)-7-oxo-6-(3-(2-oxopyrrolidin-1-yl)phenyl)-4,5,6,7-tetrahydro-1H-pyrazolo[3,4-c]pyridine-3-carboxylate] |
| 100 to 300 | Cc1ccncc1CNC(=O)n1nc(-c2cccc(Cl)c2)c2c1CCN(c1ccc3c(c1)CN(CCO)CC3)C2=O [Example 4003, 3-(3-chlorophenyl)-5-(2-(2-hydroxyethyl)-1,2,3,4-tetrahydroisoquinolin-7-yl)-N-((4-methylpyridin-3-yl)methyl)-4-oxo-4,5,6,7-tetrahydro-1H-pyrazolo[4,3-c]pyridine-1-carboxamide] |
| 1000 to 3000 | COCc1nn(-c2cccc(Cl)c2)c2c1CCN(c1ccc3c(c1)C(=O)N(C)CC3)C2=O [Example 1184, 7-(1-(3-chlorophenyl)-3-(methoxymethyl)-7-oxo-1,4,5,7-tetrahydro-6H-pyrazolo[3,4-c]pyridin-6-yl)-2-methyl-3,4-dihydroisoquinolin-1(2H)-one] |
| 300 to 1000 | CN1CCc2ccc(N3CCc4c(C(=O)NC[C@H]5C[C@H](O)C5)nn(-c5cccc(Cl)c5)c4C3=O)cc2C1=O [Example 1274, 1-(3-chlorophenyl)-N-(((1r,3r)-3-hydroxycyclobutyl)methyl)-6-(2-methyl-1-oxo-1,2,3,4-tetrahydroisoquinolin-7-yl)-7-oxo-4,5,6,7-tetrahydro-1H-pyrazolo[3,4-c]pyridine-3-carboxamide] |
| 300 to 1000 | CN1CCc2ccc(N3CCc4c(C(=O)NC[C@@H]5COCCO5)nn(-c5cccc(Cl)c5)c4C3=O)cc2C1=O [Example 1249, (R)-N-((1,4-dioxan-2-yl)methyl)-1-(3-chlorophenyl)-6-(2-methyl-1-oxo-1,2,3,4-tetrahydroisoquinolin-7-yl)-7-oxo-4,5,6,7-tetrahydro-1H-pyrazolo[3,4-c]pyridine-3-carboxamide] |
| 10 to 100 | CCOC(=O)c1nn(-c2cc(C)cc(CN)c2)c2c1CCN(c1ccc3c(c1)C(=O)N(C)CC3)C2=O [Example 2022, ethyl 1-(3-(aminomethyl)-5-methylphenyl)-6-(2-methyl-1-oxo-1,2,3,4-tetrahydroisoquinolin-7-yl)-7-oxo-4,5,6,7-tetrahydro-1H-pyrazolo[3,4-c]pyridine-3-carboxylate] |
| 10000 to 40000 | CCNC(=O)c1nn(-c2ccc(C)cc2F)c2c1CCN(c1ccc3c(c1)C(=O)N(C)CC3)C2=O [Example 2034, N-ethyl-1-(2-fluoro-4-methylphenyl)-6-(2-methyl-1-oxo-1,2,3,4-tetrahydroisoquinolin-7-yl)-7-oxo-4,5,6,7-tetrahydro-1H-pyrazolo[3,4-c]pyridine-3-carboxamide] |
| 1000 to 3000 | CN1CCc2ccc(N3CCc4c(C(=O)NCC5CC5)nn(-c5csc(Cl)c5)c4C3=O)cc2C1=O [Example 2015] |
| 100 to 300 | CN1CCc2ccc(N3CCc4c(C(=O)NC56CC(O)(C5)C6)nn(-c5cccc(Cl)c5)c4C3=O)cc2C1 [Example 1437, 1-(3-chlorophenyl)-N-(3-hydroxybicyclo[1.1.1]pentan-1-yl)-6-(2-methyl-1,2,3,4-tetrahydroisoquinolin-7-yl)-7-oxo-4,5,6,7-tetrahydro-1H-pyrazolo[3,4-c]pyridine-3-carboxamide] |

The remaining lines, values behind:

| Structure (SMILES) | IC50 [nM] |
| --- | --- |
| C[C@H](O)CN1CCc2ccc(N3CCc4c(C(=O)NCC5CC5)nn(-c5cccc(Cl)c5)c4C3=O)cc2C1 [Example 1070, (S)-1-(3-chlorophenyl)-N-(cyclopropylmethyl)-6-(2-(2-hydroxypropyl)-1,2,3,4-tetrahydroisoquinolin-7-yl)-7-oxo-4,5,6,7-tetrahydro-1H-pyrazolo[3,4-c]pyridine-3-carboxamide] | 100 to 300 |
| CN1CCc2ccc(N3CCc4c(C(=O)NC5(C)CCOCC5)nn(-c5cccc(Cl)c5)c4C3=O)cc2C1 [Example 1064, 1-(3-chlorophenyl)-6-(2-methyl-1,2,3,4-tetrahydroisoquinolin-7-yl)-N-(4-methyltetrahydro-2H-pyran-4-yl)-7-oxo-4,5,6,7-tetrahydro-1H-pyrazolo[3,4-c]pyridine-3-carboxamide] | 300 to 1000 |
| O=C(NCC1CC1)c1nn(-c2cccc(Cl)c2)c2c1CCN(c1ccc3c(c1)CN(CC(F)(F)F)CC3)C2=O [Example 1071, 1-(3-chlorophenyl)-N-(cyclopropylmethyl)-7-oxo-6-(2-(2,2,2-trifluoroethyl)-1,2,3,4-tetrahydroisoquinolin-7-yl)-4,5,6,7-tetrahydro-1H-pyrazolo[3,4-c]pyridine-3-carboxamide] | 1000 to 3000 |
| O=C(NCc1cnoc1)c1nn(-c2cccc(Cl)c2)c2c1CCN(c1ccc3c(c1)CN(CCO)CC3)C2=O [Example 1167, 1-(3-chlorophenyl)-6-(2-(2-hydroxyethyl)-1,2,3,4-tetrahydroisoquinolin-7-yl)-N-(isoxazol-4-ylmethyl)-7-oxo-4,5,6,7-tetrahydro-1H-pyrazolo[3,4-c]pyridine-3-carboxamide] | 100 to 300 |
| CN1CCc2ccc(N3CCc4c(C(=O)N[C@@H](CO)c5ccccc5)nn(-c5cccc(Cl)c5)c4C3=O)cc2C1 [Example 1063, (R)-1-(3-chlorophenyl)-N-(2-hydroxy-1-phenylethyl)-6-(2-methyl-1,2,3,4-tetrahydroisoquinolin-7-yl)-7-oxo-4,5,6,7-tetrahydro-1H-pyrazolo[3,4-c]pyridine-3-carboxamide] | 100 to 300 |
| O=C(NCC1CC1)c1nn(-c2cccc(Cl)c2)c2c1CCN(c1ccc3c(c1)CN(CCCO)CC3)C2=O [Example 1087, 1-(3-chlorophenyl)-N-(cyclopropylmethyl)-6-(2-(3-hydroxypropyl)-1,2,3,4-tetrahydroisoquinolin-7-yl)-7-oxo-4,5,6,7-tetrahydro-1H-pyrazolo[3,4-c]pyridine-3-carboxamide] | 100 to 300 |
| COC(=O)CN1CCc2ccc(N3CCc4c(C(=O)NCC5CC5)nn(-c5cccc(Cl)c5)c4C3=O)cc2C1 [Example 1094, methyl 2-(7-(1-(3-chlorophenyl)-3-((cyclopropylmethyl)carbamoyl)-7-oxo-1,4,5,7-tetrahydro-6H-pyrazolo[3,4-c]pyridin-6-yl)-3,4-dihydroisoquinolin-2(1H)-yl)acetate] | 1000 to 3000 |
| CN1CCC(CN2CCc3c(C(=O)NCc4ccccc4)nn(-c4cccc(Cl)c4)c3C2=O)CC1 [Example 1016, N-Benzyl-1-(3-chlorophenyl)-6-((1-methylpiperidin-4-yl)methyl)-7-oxo-4,5,6,7-tetrahydro-1H-pyrazolo[3,4-c]pyridine-3-carboxamide] | 10000 to 40000 |
| O=C(NCC1CC1)c1nn(-c2cccc(Cl)c2)c2c1CCN(c1ccc3c(c1)CN(CC1CC1(F)F)CC3)C2=O (centres unmarked) [Example 1097, 1-(3-chlorophenyl)-N-(cyclopropylmethyl)-6-(2-((2,2-difluorocyclopropyl)methyl)-1,2,3,4-tetrahydroisoquinolin-7-yl)-7-oxo-4,5,6,7-tetrahydro-1H-pyrazolo[3,4-c]pyridine-3-carboxamide] | 1000 to 3000 |
| CS(=O)(=O)NCCN1CCc2ccc(N3CCc4c(C(=O)NCC5CC5)nn(-c5cccc(Cl)c5)c4C3=O)cc2C1 [Example 1083, 1-(3-chlorophenyl)-N-(cyclopropylmethyl)-6-(2-(2-(methylsulfonamido)ethyl)-1,2,3,4-tetrahydroisoquinolin-7-yl)-7-oxo-4,5,6,7-tetrahydro-1H-pyrazolo[3,4-c]pyridine-3-carboxamide] | 100 to 300 |
| O=C(NCC1CC1)c1nn(-c2cccc(Cl)c2)c2c1CCN(c1ccc3c(c1)CN(CCCF)CC3)C2=O [Example 1080, 1-(3-chlorophenyl)-N-(cyclopropylmethyl)-6-(2-(3-fluoropropyl)-1,2,3,4-tetrahydroisoquinolin-7-yl)-7-oxo-4,5,6,7-tetrahydro-1H-pyrazolo[3,4-c]pyridine-3-carboxamide] | 100 to 300 |
| Cc1cc(CNC(=O)c2nn(-c3cccc(Cl)c3)c3c2CCN(c2cccc(CN4CCCCC4)c2)C3=O)[nH]n1 [Example 1168, 1-(3-chlorophenyl)-N-((3-methyl-1H-pyrazol-5-yl)methyl)-7-oxo-6-(3-(piperidin-1-ylmethyl)phenyl)-4,5,6,7-tetrahydro-1H-pyrazolo[3,4-c]pyridine-3-carboxamide] | 10 to 100 |
| C[C@@H](O)CN1CCc2ccc(N3CCc4c(C(=O)NCC5CC5)nn(-c5cccc(Cl)c5)c4C3=O)cc2C1 [Example 1101, (R)-1-(3-chlorophenyl)-N-(cyclopropylmethyl)-6-(2-(2-hydroxypropyl)-1,2,3,4-tetrahydroisoquinolin-7-yl)-7-oxo-4,5,6,7-tetrahydro-1H-pyrazolo[3,4-c]pyridine-3-carboxamide] | 300 to 1000 |
